Laboratory results: patent publication US7161032B2, “Sulfonamide derivatives, insecticides for agricultural and horticultural use, and usage thereof” (Nihon Nohyaku Co., Ltd., priority 2002, dated 2007)

Tests used:
Type in all cases: in vivo
[1] = tested on: Diamond Back Moth (Plutella xylostella); test: Insecticidal effect on diamond back moth (Test Example 1): egg-bearing Chinese cabbage seedling immersed in 50 ppm liquid chemical
Protocol: Adult diamond back moths were released and allowed to oviposit on a Chinese cabbage seedling. Two days after the release, the seedling having the eggs deposited thereon was immersed for about 30 seconds in a liquid chemical prepared by diluting a preparation containing each compound listed in Table 1 or 2 as an active ingredient to adjust the concentration to 50 ppm. After air-dryness, it was allowed to stand in a room thermostated at 25° C. Six days after the immersion, the hatched insects were counted. The mortality was calculated according to the following equation and the insecticidal effect was judged according to the criterion shown below. The test was carried out with triplicate groups of 10 insects. [formula]

[2] = tested on: Common Cutworm (Spodoptera litura); test: Insecticidal effect on common cutworm (Test Example 2): cabbage leaf piece immersed in 50 ppm liquid chemical; conditions: common cutworm (Spodoptera litura) second-instar larvae, 8 days after inoculation, 25° C.
Protocol: A piece of cabbage leaf (cultivar: Shikidori) was immersed for about 30 seconds in a liquid chemical prepared by diluting a preparation containing each compound listed in Table 1 or 2 as an active ingredient to adjust the concentration to 50 ppm. After air-dryness, it was placed in a plastic Petri dish with a diameter of 9 cm and inoculated with second-instar larvae of common cutworm, after which the dish was closed and then allowed to stand in a room thermostated at 25° C. Eight days after the inoculation, the dead and alive were counted. The mortality was calculated according to the following equation and the insecticidal effect was judged according to the criterion shown in Test Example 1. The test was carried out with triplicate groups of 10 insects. [formula]

[3] = tested on: Smaller Tea Tortrix (Adoxophyes sp.); test: Insecticidal effect on smaller tea tortrix (Test Example 3): tea leaves immersed in 50 ppm liquid chemical; conditions: smaller tea tortrix (Adoxophyes sp.) larvae, 8 days after inoculation, 25° C., humidity 70%
Protocol: Tea leaves were immersed for about 30 seconds in a liquid chemical prepared by diluting a preparation containing each compound listed in Table 1 or 2 as an active ingredient to adjust the concentration to 50 ppm. After air-dryness, the tea leaves were placed in a plastic Petri dish with a diameter of 9 cm and inoculated with larvae of smaller tea tortrix, after which the dish was allowed to stand in a room thermostated at 25° C. and having a humidity of 70%. Eight days after the inoculation, the dead and alive were counted and the insecticidal effect was judged according to the criterion shown in Test Example 1. The test was carried out with triplicate groups of 10 insects.

Row | SMILES | Insecticidal effect (mortality grade), Test Example 1 [1] | Insecticidal effect (mortality grade), Test Example 2 [2] | Insecticidal effect (mortality grade), Test Example 3 [3]
1 | Cc1cc(C(F)(C(F)(F)F)C(F)(F)F)ccc1NC(=O)c1cccc(I)c1C(=O)NC(C)(C)CS(=O)(=O)N1CCS(=O)(=O)CC1C (stereo not drawn) [1-63] | A (Mortality 100%) | A (Mortality 100%) | A (Mortality 100%)
2 | COC(=O)N1CCN(S(=O)(=O)CC(C)NC(=O)c2c(I)cccc2C(=O)Nc2ccc(C(F)(C(F)(F)F)C(F)(F)F)cc2C)CC1 (stereo not drawn) [1-66] | A (Mortality 100%) | A (Mortality 100%) | A (Mortality 100%)
3 | Cc1cc(C(F)(C(F)(F)F)C(F)(F)F)ccc1NC(=O)c1cccc(I)c1C(=O)NC(C)CS(=O)(=O)N1CCC(=O)CC1 (stereo not drawn) [1-67] | A (Mortality 100%) | E (Mortality less than 50%) | E (Mortality less than 50%)
4 | Cc1cc(C(F)(C(F)(F)F)C(F)(F)F)ccc1NC(=O)c1cccc(I)c1C(=O)NC(C)CS(=O)(=O)NCCCl (stereo not drawn) [1-71] | A (Mortality 100%) | A (Mortality 100%) | A (Mortality 100%)
5 | Cc1cc(C(F)(C(F)(F)F)C(F)(F)F)ccc1NC(=O)c1cccc(I)c1C(=O)NC(C)CS(=O)(=O)NCCO (stereo not drawn) [1-72] | A (Mortality 100%) | A (Mortality 100%) | A (Mortality 100%)
6 | COCCNS(=O)(=O)CC(C)NC(=O)c1c(I)cccc1C(=O)Nc1ccc(C(F)(C(F)(F)F)C(F)(F)F)cc1C (stereo not drawn) [1-73] | A (Mortality 100%) | A (Mortality 100%) | A (Mortality 100%)
7 | CSCCNS(=O)(=O)CC(C)NC(=O)c1c(I)cccc1C(=O)Nc1ccc(C(F)(C(F)(F)F)C(F)(F)F)cc1C (stereo not drawn) [1-75] | A (Mortality 100%) | A (Mortality 100%) | A (Mortality 100%)
8 | Cc1cc(C(F)(C(F)(F)F)C(F)(F)F)ccc1NC(=O)c1cccc(I)c1C(=O)NC(C)CS(=O)(=O)NCC[S+](C)[O-] (stereo not drawn) [1-76] | A (Mortality 100%) | A (Mortality 100%) | A (Mortality 100%)
9 | Cc1cc(C(F)(C(F)(F)F)C(F)(F)F)ccc1NC(=O)c1cccc(I)c1C(=O)NC(C)CS(=O)(=O)NCCS(C)(=O)=O (stereo not drawn) [1-77] | A (Mortality 100%) | A (Mortality 100%) | A (Mortality 100%)
10 | Cc1cc(C(F)(C(F)(F)F)C(F)(F)F)ccc1NC(=O)c1cccc(I)c1C(=O)NC(C)(C)CS(=O)(=O)NCCO [1-78] | A (Mortality 100%) | E (Mortality less than 50%) | A (Mortality 100%)
11 | COCCNS(=O)(=O)CC(C)(C)NC(=O)c1c(I)cccc1C(=O)Nc1ccc(C(F)(C(F)(F)F)C(F)(F)F)cc1C [1-79] | A (Mortality 100%) | A (Mortality 100%) | A (Mortality 100%)
12 | CSCCNS(=O)(=O)CC(C)(C)NC(=O)c1c(I)cccc1C(=O)Nc1ccc(C(F)(C(F)(F)F)C(F)(F)F)cc1C [1-81] | A (Mortality 100%) | A (Mortality 100%) | A (Mortality 100%)
13 | Cc1cc(C(F)(C(F)(F)F)C(F)(F)F)ccc1NC(=O)c1cccc(I)c1C(=O)NC(C)(C)CS(=O)(=O)NCC[S+](C)[O-] (stereo not drawn) [1-82] | A (Mortality 100%) | A (Mortality 100%) | A (Mortality 100%)
14 | Cc1cc(C(F)(C(F)(F)F)C(F)(F)F)ccc1NC(=O)c1cccc(I)c1C(=O)NC(C)(C)CS(=O)(=O)NCCS(C)(=O)=O [1-83] | A (Mortality 100%) | A (Mortality 100%) | A (Mortality 100%)
15 | CCSCCNS(=O)(=O)CC(C)(C)NC(=O)c1c(I)cccc1C(=O)Nc1ccc(C(F)(C(F)(F)F)C(F)(F)F)cc1C [1-84] | A (Mortality 100%) | A (Mortality 100%) | A (Mortality 100%)
16 | CC[S+]([O-])CCNS(=O)(=O)CC(C)(C)NC(=O)c1c(I)cccc1C(=O)Nc1ccc(C(F)(C(F)(F)F)C(F)(F)F)cc1C (stereo not drawn) [1-85] | A (Mortality 100%) | A (Mortality 100%) | A (Mortality 100%)
17 | CCS(=O)(=O)CCNS(=O)(=O)CC(C)(C)NC(=O)c1c(I)cccc1C(=O)Nc1ccc(C(F)(C(F)(F)F)C(F)(F)F)cc1C [1-86] | A (Mortality 100%) | A (Mortality 100%) | A (Mortality 100%)
18 | Cc1cc(C(F)(C(F)(F)F)C(F)(F)F)ccc1NC(=O)c1cccc(I)c1C(=O)NC(C)(C)CS(=O)(=O)NCCSc1ccccc1 [1-87] | A (Mortality 100%) | A (Mortality 100%) | A (Mortality 100%)
19 | Cc1cc(C(F)(C(F)(F)F)C(F)(F)F)ccc1NC(=O)c1cccc(I)c1C(=O)NC(C)(C)CS(=O)(=O)NCC[S+]([O-])c1ccccc1 (stereo not drawn) [1-88] | A (Mortality 100%) | A (Mortality 100%) | A (Mortality 100%)
20 | Cc1cc(C(F)(C(F)(F)F)C(F)(F)F)ccc1NC(=O)c1cccc(I)c1C(=O)NC(C)(C)CS(=O)(=O)NCCS(=O)(=O)c1ccccc1 [1-89] | A (Mortality 100%) | A (Mortality 100%) | A (Mortality 100%)
21 | CSCC(C)NS(=O)(=O)CC(C)NC(=O)c1c(I)cccc1C(=O)Nc1ccc(C(F)(C(F)(F)F)C(F)(F)F)cc1C (stereo not drawn) [1-91] | A (Mortality 100%) | A (Mortality 100%) | A (Mortality 100%)
22 | Cc1cc(C(F)(C(F)(F)F)C(F)(F)F)ccc1NC(=O)c1cccc(I)c1C(=O)NC(C)CS(=O)(=O)NC(C)C[S+](C)[O-] (stereo not drawn) [1-92] | A (Mortality 100%) | A (Mortality 100%) | A (Mortality 100%)
23 | Cc1cc(C(F)(C(F)(F)F)C(F)(F)F)ccc1NC(=O)c1cccc(I)c1C(=O)NC(C)CS(=O)(=O)NC(C)CS(C)(=O)=O (stereo not drawn) [1-93] | A (Mortality 100%) | A (Mortality 100%) | A (Mortality 100%)
24 | CSCC(C)(C)NS(=O)(=O)CC(C)NC(=O)c1c(I)cccc1C(=O)Nc1ccc(C(F)(C(F)(F)F)C(F)(F)F)cc1C (stereo not drawn) [1-94] | A (Mortality 100%) | A (Mortality 100%) | A (Mortality 100%)
